Results from PubChem BioAssay (NCI).
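In this assay, cells in 96-well plates receive the compound at five concentrations for 48 hours. Endpoints are linearly interpolated between the surrounding concentrations. Here, GI50 denotes the concentration required for 50% inhibition of growth. TGI is the concentration that stops growth completely.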

Key:
Experiment in all cases: growth of human tumour cells (NCI), 48 h
[1] = system: SNB-19 CNS
[2] = system: RPMI-8226 leukemia
[3] = system: KM12 colon
[4] = system: HOP-62 NSCLC
[5] = system: T-47D breast
[6] = system: HCT-15 colon
[7] = system: A549 NSCLC
[8] = system: LOX IMVI melanoma
[9] = system: CCRF-CEM leukemia
[10] = system: SK-MEL-2 melanoma
[11] = system: SK-MEL-5 melanoma
[12] = system: EKVX NSCLC
[13] = system: OVCAR-4 ovarian
[14] = system: MDA-MB-231 breast
[15] = system: SF-539 CNS
[16] = system: UO-31 renal
[17] = system: NCI-H226 lung
[18] = system: OVCAR-3 ovarian
[19] = system: UACC-62 melanoma
[20] = system: HCC-2998 colon
[21] = system: SW-620 colon
[22] = system: BT-549 breast
[23] = system: MALME-3M melanoma
[24] = system: HOP-92 NSCLC
[25] = system: OVCAR-5 ovarian
[26] = system: SF-268 CNS
[27] = system: SR leukemia
[28] = system: K-562 leukemia
[29] = system: UACC-257 melanoma
[30] = system: PC-3 prostate
[31] = system: SNB-75 CNS
[32] = system: CAKI-1 renal
[33] = system: SK-OV-3 ovarian
[34] = system: MOLT-4 leukemia
[35] = system: HT29 colon
[36] = system: NCI-H522 lung
[37] = system: SF-295 CNS
[38] = system: IGROV1 ovarian
[39] = system: U251 CNS
[40] = system: SK-MEL-28 melanoma
[41] = system: HL-60(TB) leukemia
[42] = system: SN12C renal
[43] = system: MCF7 breast
[44] = system: ACHN renal
[45] = system: NCI-H460 lung
[46] = system: OVCAR-8 ovarian
[47] = system: DU-145 prostate
[48] = system: HS 578T breast
[49] = system: RXF 393 renal
[50] = system: A498 renal
[51] = system: TK-10 renal
[52] = system: MDA-MB-435
[53] = system: NCI/ADR-RES ovarian
[54] = system: 786-0 renal
[55] = system: COLO 205 colon
[56] = system: HCT-116 colon
[57] = system: NCI-H23 lung
[58] = system: M14 melanoma

COC(=O)c1c2c(c(C)[n+]([O-])c1C)C(=O)C=C(NCc1ccc(Cl)cc1)C2=O
GI50 [1]: 1160 nM
TGI [1]: 2390 nM
GI50 [2]: 1240 nM
TGI [2]: 4700 nM
GI50 [3]: 127 nM
TGI [3]: 2000 nM
GI50 [4]: 1150 nM
TGI [4]: 3460 nM
GI50 [5]: 151 nM
TGI [5]: 1700 nM
GI50 [6]: 183 nM
TGI [6]: 1740 nM
GI50 [7]: 543 nM
TGI [7]: 3050 nM
GI50 [8]: 53 nM
TGI [8]: 1600 nM
GI50 [9]: 471 nM
TGI [9]: 4200 nM
GI50 [10]: 1050 nM
TGI [10]: 2730 nM
GI50 [11]: 176 nM
TGI [11]: 337 nM
GI50 [12]: 783 nM
TGI [12]: 2390 nM
GI50 [13]: 229 nM
TGI [13]: 1030 nM
GI50 [14]: 286 nM
TGI [14]: 3620 nM
GI50 [15]: 733 nM
TGI [15]: 1980 nM
GI50 [16]: 1160 nM
TGI [16]: 2660 nM
GI50 [17]: 1430 nM
TGI [17]: 3520 nM
GI50 [18]: 208 nM
TGI [18]: 625 nM
GI50 [19]: 46 nM
TGI [19]: 1020 nM
GI50 [20]: 354 nM
TGI [20]: 1550 nM
GI50 [21]: 143 nM
TGI [21]: 1370 nM
GI50 [22]: 1220 nM
TGI [22]: 2580 nM
GI50 [23]: 157 nM
TGI [23]: 381 nM
GI50 [24]: 1930 nM
TGI [24]: 4090 nM
GI50 [25]: 1290 nM
TGI [25]: 2780 nM
GI50 [26]: 747 nM
TGI [26]: 2960 nM
GI50 [27]: 733 nM
TGI [27]: 7910 nM
GI50 [28]: 47.8 nM
TGI [28]: 5250 nM
GI50 [29]: 234 nM
TGI [29]: 868 nM
GI50 [30]: 289 nM
TGI [30]: 3170 nM
GI50 [31]: 1650 nM
TGI [31]: 3030 nM
GI50 [32]: 109 nM
TGI [32]: 2180 nM
GI50 [33]: 1850 nM
TGI [33]: 4640 nM
GI50 [34]: 514 nM
TGI [34]: 2920 nM
GI50 [35]: 271 nM
TGI [35]: > 26600 nM
GI50 [36]: 508 nM
TGI [36]: 2040 nM
GI50 [37]: 362 nM
TGI [37]: 1580 nM
GI50 [38]: 346 nM
TGI [38]: 1820 nM
GI50 [39]: 598 nM
TGI [39]: 1880 nM
GI50 [40]: 733 nM
TGI [40]: 2590 nM
GI50 [41]: 324 nM
TGI [41]: 1550 nM
GI50 [42]: 309 nM
TGI [42]: 1240 nM
GI50 [43]: 267 nM
TGI [43]: 980 nM
GI50 [44]: 233 nM
TGI [44]: 1910 nM
GI50 [45]: 397 nM
TGI [45]: 1710 nM
GI50 [46]: 296 nM
TGI [46]: 1440 nM
GI50 [47]: 1090 nM
TGI [47]: 2320 nM
GI50 [48]: 1770 nM
TGI [48]: 6500 nM
GI50 [49]: 1220 nM
TGI [49]: 2530 nM
GI50 [50]: 1210 nM
TGI [50]: 2470 nM
GI50 [51]: 2950 nM
TGI [51]: 8200 nM
GI50 [52]: 89.5 nM
TGI [52]: 229 nM
GI50 [53]: 310 nM
TGI [53]: 3220 nM
GI50 [54]: 1320 nM
TGI [54]: 3570 nM
GI50 [55]: 278 nM
TGI [55]: 963 nM
GI50 [56]: 249 nM
TGI [56]: 1050 nM
GI50 [57]: 572 nM
TGI [57]: 2900 nM
GI50 [58]: 202 nM
TGI [58]: 1680 nM
